# Data from patent US8258149B2, “Isoquinoline derivatives” (Hoffmann-La Roche Inc., priority 2009, dated 2012).
# System: L6 myotubes
# Test: Glucose uptake (2-deoxy-D-[3H]glucose) in L6 myotubes, effectiveness in muscular glucose utilization
# Type: cell-based
# Conditions: Rattus norvegicus, L6 myotubes treated with compound 2 hours
# Method: L6 myoblasts were cultured in DMEM supplemented with 10% FBS. Confluent cells were differentiated to myotubes by culturing with DMEM supplemented with 2% FBS for 6 days. L6 myotubes were treated with compounds for 2 hours. Glucose uptake was performed in 16 h serum-starved cells. Cells were washed with PBS and incubated in Krebs-Ringer phosphate-HEPES buffer containing 0.1% BSA with or without 100 nmol/l insulin. Then, cells were incubated with 0.05 mmol/l 2-deoxy-D-glucose and 0.5 μCi 2-deoxy-D-[1,2-^3H]glucose for 10 min. The assay was terminated by washing the cells three times with ice-cold PBS. Cells were solubilised with 0.1% triton X-100 and radioactivity was determined by liquid scintillation counting. Total cellular protein concentration was measured by the Bradford method. Glucose uptake was performed in duplicate. The compounds were tested at concentrations of 1 uM and 3 uM. In this test, the compounds of formula (I) induce a glucose uptake activity between 1 and 2 fold the glucose uptake activity of the vehicle. Some particularly preferred compounds of formula (I) induce a glucose uptake activity between 1.2 and 2 fold the glucose uptake of the vehicle. Other particularly preferred compounds of formula (I) induce a glucose uptake activity between 1.4 and 2 fold the glucose uptake activity of the vehicle.
structure (smiles),measurement,value
"C=C(C)C1c2c(ccc(OC)c2OC)C=C2c3cc4c(cc3CCN21)OCO4 (centres unmarked) [Example 4, 8-Isopropenyl-9,10-dimethoxy-5,8-dihydro-6H-[1,3]dioxolo[4,5-g]isoquino[3,2-a]isoquinoline]",fold induction at 1 µM,1.86
same,fold induction at 3 µM,1.46
"CC#CC1c2c(ccc(OC)c2OC)C=C2c3cc4c(cc3CCN21)OCO4 (centres unmarked) [Example 7, 9,10-Dimethoxy-8-prop-1-ynyl-5,8-dihydro-6H-[1,3]dioxolo[4,5-g]isoquino[3,2-a]isoquinoline]",fold induction at 1 µM,1.58
same,fold induction at 3 µM,1.68
"COc1ccc2c(c1OC)C(C)(C)N1CCc3cc4c(cc3C1=C2Cc1ccccc1)OCO4 [Example 18, 13-Benzyl-9,10-dimethoxy-8,8-dimethyl-5,8-dihydro-6H-[1,3]dioxolo[4,5-g]isoquino[3,2-a]isoquinoline]",fold induction at 1 µM,1.19
same,fold induction at 3 µM,1.05
"C=CCC1(CC=C)c2c(ccc(OC)c2OC)C=C2c3cc4c(cc3CCN21)OCO4 [Example 17, 8,8-Diallyl-9,10-dimethoxy-5,8-dihydro-6H-[1,3]dioxolo[4,5-g]isoquino[3,2-a]isoquinoline]",fold induction at 1 µM,1.34
same,fold induction at 3 µM,1.04
"C=CCC1c2c(ccc(OC)c2OC)C=C2c3cc4c(cc3CCN21)OCO4 (centres unmarked) [Example 6, 8-Allyl-9,10-dimethoxy-5,8-dihydro-6H-[1,3]dioxolo[4,5-g]isoquino[3,2-a]isoquinoline]",fold induction at 3 µM,1.07
"COc1ccc2c(c1OC)C(C)(C)N1CCc3cc4c(cc3C1C2Cc1ccccn1)OCO4 (centres unmarked) [Example 24, 9,10-Dimethoxy-8,8-dimethyl-13-pyridin-2-ylmethyl-5,8,13,13a-tetrahydro-6H-[1,3]dioxolo[4,5-g]isoquino[3,2-a]isoquinoline]",fold induction at 1 µM,1.11
same,fold induction at 3 µM,1.03
"COc1ccc2c(c1OC)C(C)(C)N1CCc3cc4c(cc3C1C2C)OCO4 (centres unmarked) [Example 22, 9,10-Dimethoxy-8,8,13-trimethyl-5,8,13,13a-tetrahydro-6H-[1,3]dioxolo[4,5-g]isoquino[3,2-a]isoquinoline]",fold induction at 1 µM,1.38
same,fold induction at 3 µM,1.46
"C=CC1c2c(ccc(OC)c2OC)C=C2c3cc4c(cc3CCN21)OCO4 (centres unmarked) [Example 3, 9,10-Dimethoxy-8-vinyl-5,8-dihydro-6H-[1,3]dioxolo[4,5-g]isoquino[3,2-a]isoquinoline]",fold induction at 1 µM,1.16
same,fold induction at 3 µM,1.11
"COc1ccc2c(c1OC)C1(CC=CC1)N1CCc3cc4c(cc3C1C2)OCO4 (centres unmarked) [Example 26, 9′,10′-Dimethoxy-5′,6′,13′,13a′-tetrahydrospiro[cyclopent-3-ene-1,8′-[1,3]dioxolo[4,5-g]isoquino[3,2-a]isoquinoline]]",fold induction at 1 µM,1.12
same,fold induction at 3 µM,1.11
"CCC1=C2c3cc4c(cc3CCN2C(C)(C)c2c1ccc(OC)c2OC)OCO4 [Example 16, 13-Ethyl-9,10-dimethoxy-8,8-dimethyl-5,8-dihydro-6H-[1,3]dioxolo[4,5-g]isoquino[3,2-a]isoquinoline]",fold induction at 1 µM,1.25
same,fold induction at 3 µM,0.91
"COc1ccc2c(c1OC)C1(CCCC1)N1CCc3cc4c(cc3C1=C2)OCO4 [Example 20, 9′,10′-Dimethoxy-5′,6′-dihydrospiro[cyclopentane-1,8′-[1,3]dioxolo[4,5-g]isoquino[3,2-a]isoquinoline]]",fold induction at 1 µM,1.2
same,fold induction at 3 µM,1.18
"C#CC1c2c(ccc(OC)c2OC)C=C2c3cc4c(cc3CCN21)OCO4 (centres unmarked) [Example 5, 8-Ethynyl-9,10-dimethoxy-5,8-dihydro-6H-[1,3]dioxolo[4,5-g]isoquino[3,2-a]isoquinoline]",fold induction at 3 µM,1.15
"C=C(C)C1c2c(ccc(OC)c2OC)C(C)=C2c3cc4c(cc3CCN21)OCO4 (centres unmarked) [Example 8, 8-Isopropenyl-9,10-dimethoxy-13-methyl-5,8-dihydro-6H-[1,3]dioxolo[4,5-g]isoquino[3,2-a]isoquinoline]",fold induction at 1 µM,1.2
same,fold induction at 3 µM,1.35
"COc1ccc2c(c1OC)C(c1ccccc1)N1CCc3cc4c(cc3C1=C2)OCO4 (centres unmarked) [Example 1, 9,10-Dimethoxy-8-phenyl-5,8-dihydro-6H-[1,3]dioxolo[4,5-g]isoquino[3,2-a]isoquinoline]",fold induction at 1 µM,1.32
same,fold induction at 3 µM,1.3
"COc1ccc2c(c1OC)C1(CCCC1)N1CCc3cc4c(cc3C1C2)OCO4 (centres unmarked) [Example 2, 9′,10′-Dimethoxy-5′,6′,13′,13a′-tetrahydrospiro[cyclopentane-1,8′-[1,3]dioxolo[4,5-g]isoquino[3,2-a]isoquinoline]]",fold induction at 1 µM,1.11
same,fold induction at 3 µM,1.07
"CCC1(CC)c2c(ccc(OC)c2OC)C(C)C2c3cc4c(cc3CCN21)OCO4 (centres unmarked) [Example 23, 8,8-Diethyl-9,10-dimethoxy-13-methyl-5,8,13,13a-tetrahydro-6H-[1,3]dioxolo[4,5-g]isoquino[3,2-a]isoquinoline]",fold induction at 1 µM,1.1
same,fold induction at 3 µM,1.14
"C=C(C)C1c2c(ccc(OC)c2OC)C(CC)=C2c3cc4c(cc3CCN21)OCO4 (centres unmarked) [Example 10, 13-Ethyl-8-isopropenyl-9,10-dimethoxy-5,8-dihydro-6H-[1,3]dioxolo[4,5-g]isoquino[3,2-a]isoquinoline]",fold induction at 1 µM,1.05
same,fold induction at 3 µM,1.22
"COc1ccc2c(c1OC)C(C)(C)N1CCc3cc4c(cc3C1=C2C)OCO4 [Example 14, 9,10-Dimethoxy-8,8,13-trimethyl-5,8-dihydro-6H-[1,3]dioxolo[4,5-g]isoquino[3,2-a]isoquinoline]",fold induction at 1 µM,1.21
same,fold induction at 3 µM,1.18
"C=CCC1=C2c3cc4c(cc3CCN2C(C(=C)C)c2c1ccc(OC)c2OC)OCO4 (centres unmarked) [Example 13, 13-Allyl-8-isopropenyl-9,10-dimethoxy-5,8-dihydro-6H-[1,3]dioxolo[4,5-g]isoquino[3,2-a]isoquinoline]",fold induction at 1 µM,0.94
same,fold induction at 3 µM,1.05
"COc1ccc2c(c1OC)C(C)(C)N1CCc3cc4c(cc3C1C2)OCO4 (centres unmarked) [Example 21, 9,10-Dimethoxy-8,8-dimethyl-5,8,13,13a-tetrahydro-6H-[1,3]dioxolo[4,5-g]isoquino[3,2-a]isoquinoline]",fold induction at 1 µM,1.22
same,fold induction at 3 µM,1.14
"COc1cc(Cl)c2c(c1OC)C(C)(C)N1CCc3cc4c(cc3C1=C2)OCO4 [Example 19, 12-Chloro-9,10-dimethoxy-8,8-dimethyl-5,8-dihydro-6H-[1,3]dioxolo[4,5-g]isoquino[3,2-a]isoquinoline]",fold induction at 1 µM,1.25
same,fold induction at 3 µM,1.24
"CCC1(CC)c2c(ccc(OC)c2OC)C(C)=C2c3cc4c(cc3CCN21)OCO4 [Example 15, 8,8-Diethyl-9,10-dimethoxy-13-methyl-5,8-dihydro-6H-[1,3]dioxolo[4,5-g]isoquino[3,2-a]isoquinoline]",fold induction at 1 µM,1.22
same,fold induction at 3 µM,1.14
"COc1ccc2c(c1OC)C(C)(C)N1CCc3cc4c(cc3C1C2Cc1ccccc1)OCO4 (centres unmarked) [Example 25, 13-Benzyl-9,10-dimethoxy-8,8-dimethyl-5,8,13,13a-tetrahydro-6H-[1,3]dioxolo[4,5-g]isoquino[3,2-a]isoquinoline]",fold induction at 1 µM,1.13
same,fold induction at 3 µM,1.02
"CC#CC1c2c(ccc(OC)c2OC)C(CC)=C2c3cc4c(cc3CCN21)OCO4 (centres unmarked) [Example 12, 13-Ethyl-9,10-dimethoxy-8-prop-1-ynyl-5,8-dihydro-6H-[1,3]dioxolo[4,5-g]isoquino[3,2-a]isoquinoline]",fold induction at 1 µM,1.59
same,fold induction at 3 µM,1.22
"COc1ccc2c(c1OC)C(C)(C)N1CCc3cc4c(cc3C1=C2)OCO4 [Example 27, 9,10-Dimethoxy-8,8-dimethyl-5,8-dihydro-6H-[1,3]dioxolo[4,5-g]isoquino[3,2-a]isoquinoline]",fold induction at 1 µM,1.62
same,fold induction at 3 µM,1.65
"CC#CC1c2c(ccc(OC)c2OC)C(C)=C2c3cc4c(cc3CCN21)OCO4 (centres unmarked) [Example 9, 9,10-Dimethoxy-13-methyl-8-prop-1-ynyl-5,8-dihydro-6H-[1,3]dioxolo[4,5-g]isoquino[3,2-a]isoquinoline]",fold induction at 1 µM,1.63
same,fold induction at 3 µM,0.99
"C=CCC1c2c(ccc(OC)c2OC)C(CC)=C2c3cc4c(cc3CCN21)OCO4 (centres unmarked) [Example 11, 8-Allyl-13-ethyl-9,10-dimethoxy-5,8-dihydro-6H-[1,3]dioxolo[4,5-g]isoquino[3,2-a]isoquinoline]",fold induction at 1 µM,1.15
"CCC1(CC)c2c(ccc(OC)c2OC)C=C2c3cc4c(cc3CCN21)OCO4 [Example 28, 8,8-Diethyl 9,10-dimethoxy-5,8-dihydro-6H-[1,3]dioxolo[4,5-g]isoquino[3,2-a]isoquinoline]",fold induction at 1 µM,1.47
same,fold induction at 3 µM,1.12
